From patent US6376537B1, “Cancer treatment” (priority 2000, dated 2002)

Columns and labels:
metastatic colon cancer = assay: Colon cancer case reports, oral Simvastatin treatment; assay type: in vivo, human; details: Case #1, 20 mg daily raised to 80 mg; over three to four months
Method: (§1) Its use according to this invention in the treatment of malignant disease consists of daily administration of an 80 mg tablet orally.
(§2) In order to avoid unforeseen side effects, the treatment is initiated at about 20 mg dose tablet once daily for one week. The dose then is increased to about 40 mg once daily for an additional week. The following week the dose is increased to about 60 mg and on the fourth week the dose is increased to about 80 mg (two tablets of 40 mg each), and to remain so indefinitely. The intervals for stepping up the dosage can vary.
Case #1: business person who underwent hemicolectomy for adenocarcinoma of the colon in 1993 was presented in 1995 to Cedars Sinai Medical Center Liver Team for possible cryotherapy. At that time they had multiple masses in both lobes of the liver as well as outside their liver and multiple nodules in both lungs. Clinically they were bedridden, weak and malnourished. They were rejected as a suitable candidate for needle cryotherapy because of their advanced disease, and was considered unrescuable with a life expectancy of several weeks.
The dose was increased by 20 mg increments every two weeks up to the dose of 80 mg. […] […] gained 27 pounds, became normally active, including extensive travel around the world.
Case #2: person underwent hemicolectomy for cancer of the colon in 1995 because of intestinal obstruction. […]

hepatocellular carcinoma = assay: Liver cancer case report, oral Simvastatin treatment; assay type: in vivo, human
Method: as §1, §2

SMILES: CCC(C)(C)C(=O)O[C@H]1C[C@@H](C)C=C2C=C[C@H](C)[C@H](CC[C@@H]3C[C@@H](O)CC(=O)O3)[C@H]21 [Simvastatin]
- weight gain (metastatic colon cancer): 27 pounds
- tumor marker alpha fetoprotein (hepatocellular carcinoma; patient, baseline above 55,000, started January 1999, value by April of 1999): less than 8
- tumor marker alpha fetoprotein (hepatocellular carcinoma; same patient, value in March 2000): 2.4
